system: last instar larvae of common house mosquitos (Culexpipienspallens); test: Larval mortality test on common house mosquitos in treated water (Test Example 5); assay type: in vivo; conditions: Culicidae, 192 h; active ingredient 3.5 ppm in ion-exchanged water; 20 last instar larvae; observed after 8 days
Method: Each of the formulations of Compounds (4), (5), (11) and (12) of the present invention obtained in Formulation Example 15 was diluted with water, so as to have a concentration of active ingredient of 500 ppm, to prepare a test drug solution.
0.7 ml of the test drug solution was added to 100 ml of ion-exchanged water (a concentration of active ingredient of 3.5 ppm).

Row | SMILES | mortality at 3.5 ppm
1 | O=C(/C=C/CCCCCCc1ccccc1)NCC1CCOC1 (stereo not shown) [Compound (4), (E)-N-(tetrahydrofuran-3-ylmethyl)-9-phenyl-2-noneneamide] | ≥ 95%
2 | O=C(/C=C/CCCCCCCc1ccccc1)NCC1CCOC1 (stereo not shown) [Compound (5), (E)-N-(tetrahydrofuran-3-ylmethyl)-10-phenyl-2-deceneamide] | ≥ 95%
3 | O=C(/C=C/CCCCCCc1ccccc1)NCC1CCOCC1 [Compound (11), (E)-N-(tetrahydropyran-4-ylmethyl)-9-phenyl-2-noneneamide] | ≥ 95%
4 | C/C(=C\C(=O)NCC1CCOCC1)CCCc1ccccc1 [Compound (12), (E)-N-(tetrahydropyran-4-ylmethyl)-3-methyl-6-phenyl-2-hexeneamide] | ≥ 95%
